# Test results taken from US11040987B2 (TenNor Therapeutics Limited, priority 2019, dated 2021).
# What was measured:
# [1] = target: T1, NDM-1 (Klebsiella pneumoniae, UniProt C7C422); experiment: β-lactamase inhibition, spectrophotometric assay of nitrocefin hydrolysis; format: biochemical; details: class B β-lactamase, 10 μM ZnSO4; 200 μM nitrocefin, 25° C., 2 hours; read-out: IC50 NDM-1
# T1 construct: made in house
# Description: (§1) Hydrolytic inactivation of the β-lactam antibiotics by β-lactamases is the most widespread drug resistant mechanism and the most challenge clinically among Gram-negative bacterial pathogens. Based on the amino acid sequences, the β-lactamases are grouped into four classes (Ambler classification), of which A, C and D are serine hydrolases and B encompasses metallo-β-lactamases. The IC50 of selected derivatives disclosed herein (identified with reference to example number) plus six reference β-lactam or β-lactamase inhibitors were determined against 7 representative β-lactamases of various classes in a standard spectrophotometric assay of nitrocefin hydrolysis. The assay is performed in 384-well plate. The seven recombinant β-lactamases AmpC_AB (from A. baumannii), AmpC_PA (from P. aeruginosa), KPC-2, NDM-1, IMP-1, VIM-1 and OXA 24/40) are expressed and purified. The reaction buffer for class A, C and D enzymes is 100 mM Na2HPO4—KH2PO4 (pH 7.1) plus 0.005% Tween-20, and for class B enzymes 10 μM ZnSO4 is added. […] The 50 μL of reaction solution composed of 2 pM of β-lactamase, 200 μM of nitrocefin and series of 3-fold dilutions of test or control compounds are added by Cybio SELMA system into 384-plate and incubated in dark at 25° C. for 2 hours. The OD490 is read in MC SpectraMax Plus384 plate reader.
# [2] = target: AmpC_AB (Acinetobacter baumannii, UniProt Q6DRA1); experiment: as above; format: biochemical; details: Class C β-lactamase; 200 μM nitrocefin, 25° C., 2 hours; read-out: IC50 AmpC_AB
# Description: as §1
# [3] = target: T2, IMP-1 (Serratia marcescens, UniProt P52699); experiment: as above; format: biochemical; details: class B β-lactamase, 10 μM ZnSO4; 200 μM nitrocefin, 25° C., 2 hours; read-out: IC50 IMP-1
# T2 construct: made in house
# T2 sequence (P52699 19-246, looked up, species assumed): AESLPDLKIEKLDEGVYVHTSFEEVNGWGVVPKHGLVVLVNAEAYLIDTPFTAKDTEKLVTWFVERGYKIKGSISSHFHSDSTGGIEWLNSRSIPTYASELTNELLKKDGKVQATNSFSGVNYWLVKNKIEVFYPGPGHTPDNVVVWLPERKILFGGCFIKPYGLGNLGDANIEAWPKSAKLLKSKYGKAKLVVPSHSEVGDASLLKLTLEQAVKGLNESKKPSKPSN
# Description: as §1
# [4] = target: T3, VIM-1 (Pseudomonas aeruginosa, UniProt A0A0F7KYQ8); experiment: as above; format: biochemical; details: class B β-lactamase, 10 μM ZnSO4; 200 μM nitrocefin, 25° C., 2 hours; read-out: IC50 VIM-1
# T3 construct: made in house
# Description: as §1
# [5] = tested on: A.b TNP 41704; experiment: MIC against A. baumannii clinical isolates, alone and in combination with antibiotics; format: cell-based; details: for MIC: Acinetobacter baumannii, TNP41704, Compounds alone, read-out: MIC A.b TNP 41704
# [6] = tested on: Escherichia coli ATCC 25922; experiment: MIC determination, broth microdilution, ESKAPE panel; format: cell-based; details: ATCC25922, iron-depleted cation-adjusted Mueller-Hinton broth, 2,2-dipyridyl 160 μM, 37° C., 18-20 hours, read-out: MIC E. coli ATCC 25922
# Method: (§2) Minimum inhibitory concentration (MIC) is determined by a broth microdilution method according to the recommendation of the Clinical and Laboratory Standards Institute (CLSI) with minor modification. […] Strains of an ESKAPE panel (E. faecium ATCC 700221, S. aureus ATCC 29213, K. pneumoniae ATCC 43816, A. baumannii ATCC 19606, P. aeruginosa ATCC 27853 and Escherichia coli ATCC 25922) were obtained originally from the American Type Culture Collection (ATCC) and used for MIC determinations of compounds. The bacteria inoculum in the test is […].
# [7] = tested on: S. aureus ATCC 29213; experiment: as above; format: cell-based; details: Staphylococcus aureus, ATCC29213; iron-depleted cation-adjusted Mueller-Hinton broth, 2,2-dipyridyl 160 μM; 37° C., 18-20 hours; read-out: MIC S. aureus ATCC 29213
# Method: as §2
# [8] = tested on: A. baumannii ATCC 19606; experiment: as above; format: cell-based; details: Acinetobacter baumannii, ATCC19606; iron-depleted cation-adjusted Mueller-Hinton broth, 2,2-dipyridyl 160 μM; 37° C., 18-20 hours; read-out: MIC A. baumannii ATCC 19606
# Method: as §2
# [9] = tested on: K. pneumoniae ATCC 43816; experiment: as above; format: cell-based; details: Klebsiella pneumoniae, ATCC43816; iron-depleted cation-adjusted Mueller-Hinton broth, 2,2-dipyridyl 160 μM; 37° C., 18-20 hours; read-out: MIC K. pneumoniae ATCC 43816
# Method: as §2
# [10] = tested on: E. faecium ATCC 700221; experiment: as above; format: cell-based; details: Enterococcus faecium, ATCC700221; iron-depleted cation-adjusted Mueller-Hinton broth, 2,2-dipyridyl 160 μM; 37° C., 18-20 hours; read-out: MIC E. faecium ATCC 700221
# Method: as §2
# [11] = tested on: P. aeruginosa ATCC 27853; experiment: as above; format: cell-based; details: Pseudomonas aeruginosa, ATCC27853; iron-depleted cation-adjusted Mueller-Hinton broth, 2,2-dipyridyl 160 μM; 37° C., 18-20 hours; read-out: MIC P. aeruginosa ATCC 27853
# Method: as §2
# [12] = tested on: A.b TNP 41709; experiment: MIC against A. baumannii clinical isolates, alone and in combination with antibiotics; format: cell-based; details: for MIC: Acinetobacter baumannii, TNP41709, Compounds alone, read-out: MIC A.b TNP 41709
# [13] = tested on: A.b TNP 41708; experiment: as above; format: cell-based; details: for MIC: Acinetobacter baumannii, TNP41708, read-out: MIC A.b TNP 41708
# Method: as §2
# [14] = target: T4, OXA 24/40 (Acinetobacter baumannii, UniProt Q8RLA6); experiment: β-lactamase inhibition, spectrophotometric assay of nitrocefin hydrolysis; format: biochemical
# T4 construct: made in house
# T4 sequence (Q8RLA6 22-275): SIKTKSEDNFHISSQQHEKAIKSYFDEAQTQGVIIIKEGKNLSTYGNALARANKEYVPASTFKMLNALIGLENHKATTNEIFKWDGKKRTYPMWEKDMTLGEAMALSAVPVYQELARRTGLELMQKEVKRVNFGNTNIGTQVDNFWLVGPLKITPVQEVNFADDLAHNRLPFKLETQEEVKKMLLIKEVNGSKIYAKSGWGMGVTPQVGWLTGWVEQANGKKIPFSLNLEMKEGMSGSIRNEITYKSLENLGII
# Description: as §1
# T1 sequence (C7C422 29-270, looked up, species assumed): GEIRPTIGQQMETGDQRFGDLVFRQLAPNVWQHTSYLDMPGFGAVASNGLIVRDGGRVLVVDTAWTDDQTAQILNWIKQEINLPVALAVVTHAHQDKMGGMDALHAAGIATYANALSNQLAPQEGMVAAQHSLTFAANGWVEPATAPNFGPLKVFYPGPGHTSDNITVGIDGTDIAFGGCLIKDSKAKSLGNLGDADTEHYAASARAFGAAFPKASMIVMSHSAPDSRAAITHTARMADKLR
SMILES,IC50 [1] [µM],IC50 [2] [µM],IC50 [3] [µM],IC50 [4] [µM],MIC [5] [µg/mL],MIC A.b TNP 41704 ([5]; Compounds + meropenem (1:1)) [µg/mL],MIC A.b TNP 41704 ([5]; Compounds + sulbactam (1:1)) [µg/mL],MIC [6] [µg/mL],MIC [7] [µg/mL],MIC [8] [µg/mL],MIC [9] [µg/mL],MIC [10] [µg/mL],MIC [11] [µg/mL],MIC [12] [µg/mL],MIC A.b TNP 41709 ([12]; Compounds + meropenem (1:1)) [µg/mL],MIC A.b TNP 41709 ([12]; Compounds + sulbactam (1:1)) [µg/mL],MIC [13] [µg/mL],MIC A.b TNP 41708 ([13]; Compounds + meropenem (1:1)) [µg/mL],MIC A.b TNP 41708 ([13]; Compounds + sulbactam (1:1)) [µg/mL],IC50 [14] [µM]
"NC(=O)[C@@H]1CC[C@@H]2CN1C(=O)N2OS(=O)(=O)O [Avibactam, reference compound]",> 200,2.61,> 200,> 200,–,–,–,–,–,–,–,–,–,–,–,–,–,–,–,–
"CN(NC(=O)c1ccc(O)c(O)c1)C(=O)OC[C@@]1(C)[C@H](C(=O)O)N2C(=O)C[C@H]2S1(=O)=O [Example 76, (2S,3R,5R)-3-(((2-(3,4-dihydroxybenzoyl)-1-methylhydrazinecarbonyl)oxy)methyl)-3-methyl-7-oxo-4-thia-1-azabicyclo[3.2.0]heptane-2-carboxylic acid 4,4-dioxide]",–,–,–,–,> 128,16,8,> 128,> 128,1,> 128,> 128,> 128,> 128,16,8,> 128,32,16,–
CN(NC(=O)OC[C@@]1(C)[C@H](C(=O)O)N2C(=O)C[C@H]2S1(=O)=O)C(=O)c1ccc(O)c(O)c1Cl [Example 77],–,–,–,–,> 128,16,8,64,> 128,0.25,16,> 128,> 128,> 128,16,16,> 128,32,32,–
"CN(NC(=O)c1ccc(O)c(O)c1Cl)C(=O)OC[C@@]1(C)[C@H](C(=O)O)N2C(=O)C[C@H]2S1(=O)=O [Example 80, (2S,3R,5R)-3-(((2-(2-chloro-3,4-dihydroxybenzoyl)-1-methylhydrazinecarbonyl)oxy)methyl)-3-methyl-7-oxo-4-thia-1-azabicyclo[3.2.0]heptane-2-carboxylic acid 4,4-dioxide]",–,–,–,–,> 128,16,4,64,> 128,0.25,16,> 128,> 128,> 128,32,8,> 128,64,32,–
"C[C@]1(c2cc(C(=O)c3ccc(O)c(O)c3)on2)[C@H](C(=O)O)N2C(=O)C[C@H]2S1(=O)=O [Example 112, (2S,3R,5R)-3-(5-(3,4-dihydroxybenzoyl)isoxazol-3-yl)-3-methyl-7-oxo-4-thia-1-azabicyclo[3.2.0]heptane-2-carboxylic acid 4,4-dioxide]",–,–,–,–,> 64,16,2,> 64,> 64,32,> 64,> 64,> 64,> 64,8,2,> 64,16,8,–
"C[C@]1(COC(=O)c2ccc(O)c(O)c2Cl)[C@H](C(=O)O)N2C(=O)C[C@H]2S1(=O)=O [Example 114, (2S,3R,5R)-3-(((2-chloro-3,4-dihydroxybenzoyl)oxy)methyl)-3-methyl-7-oxo-4-thia-1-azabicyclo[3.2.0]heptane-2-carboxylic acid 4,4-dioxide]",–,–,–,–,> 128,64,8,8,16,< 0.06,2,> 128,> 128,> 128,64,16,> 128,64,32,–
"C[C@]1(CNc2ccc(O)c(O)c2)[C@H](C(=O)O)N2C(=O)C[C@H]2S1(=O)=O [Example 117, (2S,3S,5R)-3-(((3,4-dihydroxyphenyl)amino)methyl)-3-methyl-7-oxo-4-thia-1-azabicyclo[3.2.0]heptane-2-carboxylic acid 4,4-dioxide]",–,–,–,–,64,8,4,> 128,> 128,4,> 128,> 128,> 128,64,8,4,128,8,4,–
"C[C@]1(/C=N/OCCNC(=O)c2ccc(O)c(O)c2Cl)[C@H](C(=O)O)N2C(=O)C[C@H]2S1(=O)=O [Example 118, (2S,3R,5R)-3-((E)-((2-(2-chloro-3,4-dihydroxybenzamido)ethoxy)imino)methyl)-3-methyl-7-oxo-4-thia-1-azabicyclo[3.2.0]heptane-2-carboxylic acid 4,4-dioxide]",–,–,–,–,> 128,128,16,> 128,> 128,> 128,> 128,> 128,> 128,> 128,>128,>128,> 128,>128,>128,–
"C[C@@H](O)[C@H]1C(=O)N2C(C(=O)O)=C(SCCN=CN)C[C@H]12 [Imipenem, reference compound]",–,–,–,–,16,–,–,0.25,< 0.06,0.25,0.5,> 128,1,32,–,–,32,–,–,–
"C[C@@H](O)[C@H]1C(=O)N2C(C(=O)O)=C(S[C@@H]3CN[C@H](C(=O)N(C)C)C3)[C@H](C)[C@H]12 [Meropenem, reference compound]",–,–,–,–,64,–,–,< 0.06,0.125,1,< 0.06,> 128,0.5,128,–,–,128,–,–,–
"O=C(NC1CCNCC1)[C@@H]1CC[C@@H]2CN1C(=O)N2OS(=O)(=O)O [Relebactam, reference compound]",> 200,0.892,> 200,> 200,–,–,–,–,–,–,–,–,–,–,–,–,–,–,–,> 200
